In article PMC4805082, “Seizure control by decanoic acid through direct AMPA receptor inhibition” (Brain, 2015):
pIC50: −log10 of the molar value.

Key:
[1] = system: AMPA receptor mediated EPSCs in hippocampal CA1 pyramidal neurons; assay: Whole-cell patch clamp, evoked AMPA receptor mediated EPSCs in CA1 pyramidal cells; type: cell-based, rat; conditions: n = 6
Description: Male Sprague-Dawley rats (postnatal Days 19–30) were sacrificed using an overdose of isoflurane or pentobarbitone (500 mg/kg). After decapitation the brain was rapidly removed, the hippocampus or entorhinal cortex-hippocampus slices was dissected from the brain and […] thick transverse slices were prepared on a VT1200S vibratome (Leica) or Vibratome (Vibratome® 1500 sectioning system, Intracell). The slicing was performed in ice-cold sucrose-based solution containing (in mM): 75 sucrose, 87 NaCl, 22 glucose, 2.5 KCl, 7 MgCl2, 1.25 NaH2PO4, 0.5 CaCl2 and 25 NaHCO3, pH 7.4, 315–330 mOsm equilibrated with 95% O2 plus 5% CO2. The slices were then stored in a continuously oxygenated humidified interface holding chamber containing oxygenated artificial CSF (in mM): 120 NaCl, 22 glucose, 2.5 KCl, 1.3 MgSO4, 1 NaH2PO4, 25 NaHCO3 and 2.5 CaCl2, pH 7.4 296 mOsm, where they recovered for at least 1 h before use.
For electrophysiological recording, the slices were placed in a recording chamber constantly perfused with 32–34°C oxygenated artificial CSF solution using a gravity-driven perfusion system. Whole-cell patch clamp recordings were performed on CA1 pyramidal cells (input resistance 330 ± 70 MΩ) visualized using an infrared differential contrast imaging system. For patching, standard walled borosilicate glass pipettes with a resistance of 2.5–3.5 MΩ were used, filled with an intracellular pipette solution containing (in mM): 120 Cs-methanesulphonate, 10 HEPES, 0.2 EGTA, 8 NaCl, 0.2 MgCl2, 2 Mg-ATP, 0.3Na-GTP, 5 QX314-Br, 10 phosphocreatine, pH adjusted to 7.2 and osmolality adjusted to 296 mOsm. Series resistance was monitored throughout experiments using a −5 mV step command and cells showing a >20% change in series resistance, a series of resistance of >20 MΩ or an unstable holding current were rejected. Recordings of excitatory postsynaptic currents (EPSCs) were performed in the presence of DL-APV (DL-2-amino-5-phosphonopentanoic; 100 µM), picrotoxin (100 µM) and CGP55845 (5 µM) to block NMDA-, GABAA- and GABAB-receptors, respectively. Decanoic acid (Sigma) was added to the perfusion solution. EPSCs were evoked by stimulation of Schaffer collaterals. Paired pulses were evoked with stimulations separated by 50 ms. Inhibitory postsynaptic current (IPSCs) were recorded in the presence of DL-APV (100 µM), NBQX (10 µM) and CGP55845 (5 µM) to block NMDA-, AMPA- and GABAB-receptors, respectively.
Recordings were obtained using a MultiClamp 700B amplifier (Axon instruments) and filtered at 4 kHz, digitized at 10 kHz, and stored on a PC. LabView8 (National instruments) was used for data acquisition and off-line analysis.

[2] = biological target: T1, AMPA receptor GluA1 (Homo sapiens, UniProt P42261); assay: Two-electrode voltage clamp, homomeric GluA1 AMPA receptor expressed in Xenopus oocytes; type: cell-based
T1 construct: expressed in transfected cells; host or cells: Xenopus laevis oocytes injected with cRNA
T1 sequence (P42261 19-906 isoform P42261-2 limits assumed): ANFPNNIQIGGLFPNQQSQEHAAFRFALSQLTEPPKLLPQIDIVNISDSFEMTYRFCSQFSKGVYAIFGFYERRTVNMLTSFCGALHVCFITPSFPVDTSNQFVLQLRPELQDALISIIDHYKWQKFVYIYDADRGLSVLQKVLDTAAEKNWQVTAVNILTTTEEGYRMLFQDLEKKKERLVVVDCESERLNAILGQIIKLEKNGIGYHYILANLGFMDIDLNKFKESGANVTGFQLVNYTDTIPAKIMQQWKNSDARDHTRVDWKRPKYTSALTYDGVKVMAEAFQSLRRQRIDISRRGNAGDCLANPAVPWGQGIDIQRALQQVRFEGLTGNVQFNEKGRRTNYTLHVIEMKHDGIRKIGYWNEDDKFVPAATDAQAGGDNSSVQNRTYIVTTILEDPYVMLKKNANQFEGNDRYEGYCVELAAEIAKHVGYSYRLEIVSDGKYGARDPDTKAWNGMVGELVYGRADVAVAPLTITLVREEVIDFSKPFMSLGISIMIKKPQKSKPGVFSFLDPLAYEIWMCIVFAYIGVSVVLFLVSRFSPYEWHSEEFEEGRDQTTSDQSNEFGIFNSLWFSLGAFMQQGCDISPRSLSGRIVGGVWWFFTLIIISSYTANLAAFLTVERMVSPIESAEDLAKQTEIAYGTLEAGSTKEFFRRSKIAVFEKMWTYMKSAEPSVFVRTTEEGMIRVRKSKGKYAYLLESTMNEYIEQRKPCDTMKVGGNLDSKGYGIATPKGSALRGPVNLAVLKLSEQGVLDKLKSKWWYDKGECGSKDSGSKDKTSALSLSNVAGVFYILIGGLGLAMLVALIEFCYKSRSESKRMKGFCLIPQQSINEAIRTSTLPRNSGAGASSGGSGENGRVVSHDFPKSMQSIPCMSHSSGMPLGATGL
Description: The AMPA receptor (flip isoform) cDNAs inserted in a SP6 polymerase expression vector (pSP6T) were a generous gift from Prof. Ralf Schoepfer (NPP, UCL). RNA was transcribed in vitro from MluI linearized transcripts using the SP6 Promega RiboMAX® RNA synthesis kit according to manufacturer’s protocols except for the addition of 0.75 mM capping nucleotide m^7G(5’)ppp(5’)G (Promega) and 1.6 mM GTP. cRNA concentrations and integrity were estimated by the intensity of fluorescence bands in RNA denaturating gels. AMPA receptor cRNAs were mixed in a nominal 1:1 ratio and ∼5 ng was injected per oocyte.
Xenopus laevis oocytes were purchased from the European Xenopus Resource Centre, University of Portsmouth. Stage V to VI oocytes were mechanically dissected and then subjected to gentle shaking for ∼30–50 min at room temperature with modified Barth’s solution (in mM): 88 NaCl, 1 KCl, 2.4 NaHCO3, 0.82 MgCl2, 0.77 CaCl2, 15 Tris-Cl, adjusted to pH 7.4 with NaOH (Sigma-Aldrich), supplemented with 50 IU/ml penicillin and 50 µg/ml streptomycin (Invitrogen) and 50 µg/ml tetracycline (Sigma-Aldrich) and 1% collagenase (type 1A). Healthy oocytes were manually defolliculated and the injections of cRNA for homomeric subunits alone (GluA1), or heteromeric mixtures of two subunits together (GluA1/GluA2 or GluA2/GluA3) were made using an automated Drummond Nanoinject II injector. The oocytes were then incubated at 17°C in modified Barth’s solution for at least 48 h before use in electrophysiological recordings.
Experiments were performed at room temperature (∼21–23°C). An oocyte was placed in a recording chamber (0.3–0.5 ml volume) and perfused with ND96 solution (96 mM NaCl, 2 mM KCl, 1.8 mM CaCI2, 1 mM MgCl2, 5 mM HEPES, with pH adjusted to 7.5). Current and voltage electrodes were filled with 300 mM KCl and made from thin-walled borosilicate glass (GC150TF-7.5, Harvard Apparatus) using a PC-10 electrode puller (Narashige Instruments) and had resistances of 0.5–2 MΩ. Oocytes were voltage-clamped to a holding potential of −50 mV or −60 mV using a Turbo TEC-03 amplifier (npi electronics). […]

[3] = parameters: method as in earlier work; conditions: average; children with intractable epilepsy on MCT diet; ref Haidukewych et al., 1982; Sills et al., 1986a; Dean et al., 1989; cited from earlier work

CCCCCCCCCC(=O)O [decanoic acid]
decrease of EPSC amplitude ([1]; 100 µM): 17.0 ± 5.6% | decrease of EPSC amplitude ([1]; 300 µM): 38.9 ± 5.5% | effect on 1/CV^2 for EPSCs ([1]; 300 µM, versus baseline): no effect | effect on paired pulse ratio for EPSCs ([1]; 300 µM, versus baseline): did not affect | pIC50 [2]: 2.68 | serum concentration [3]: 156.7 µM
